Laboratory results reported in PMC7521880 (European Journal of Medicinal Chemistry, 2020).

Tested on: varicella-zoster virus (VZV, TK+ Oka strain)
Assay type: cell-based
Conditions: VZV in HEL cells; strain not specified

Row | SMILES | Selectivity index (SI), ratio CC50 for HEL cells / EC50
1 | CC(=O)OC[C@H]1O[C@@H](n2cc3c(C#Cc4ccc(C)cc4)c(-c4ccc(C)cc4)oc3nc2=O)C[C@@H]1OC(C)=O [Compound 6h, 3-(3′,5′-di-O-acetyl-2′-deoxy-β-D-ribofuranosyl)-6-(4-methylphenyl)-5-((4-methylphenyl)ethynyl)-2,3-dihydrofuro[2,3-d]pyrimidin-2-one] | ≤ 1
2 | CCCCCc1ccc(-c2oc3nc(=O)n([C@H]4C[C@H](OC(C)=O)[C@@H](COC(C)=O)O4)cc3c2C#CCO)cc1 [Compound 7a, 3-(3′,5′-di-O-acetyl-2′-deoxy-β-D-ribofuranosyl)-5-(3-hydroxyprop-1-yn-1-yl)-6-(4-pentylphenyl)-2,3-dihydrofuro[2,3-d]pyrimidin-2-one] | ≤ 1
3 | CC(=O)OC[C@H]1O[C@@H](n2cc3c(C#CC4(O)c5ccccc5-c5ccccc54)c(-c4ccc(C)cc4)oc3nc2=O)C[C@@H]1OC(C)=O [Compound 6c, 3-(3′,5′-di-O-acetyl-2′-deoxy-β-D-ribofuranosyl)-5-((9-hydroxy-9H-fluoren-9-yl)ethynyl)-6-(4-methylphenyl)-2,3-dihydrofuro[2,3-d]pyrimidin-2-one] | ≤ 1
4 | CCCCCc1ccc(-c2oc3nc(=O)n([C@H]4C[C@H](OC(C)=O)[C@@H](COC(C)=O)O4)cc3c2C#CCCO)cc1 [Compound 7b, 3-(3′,5′-di-O-acetyl-2′-deoxy-β-D-ribofuranosyl)-5-(4-hydroxybut-1-yn-1-yl)-6-(4-pentylphenyl)-2,3-dihydrofuro[2,3-d]pyrimidin-2-one] | ≤ 1
